Measurements from paper PMC5818482, “Experimental study of the anti-tumour activity and pharmacokinetics of arctigenin and its valine ester derivative” (Scientific Reports, 2018).
≈ marks a conversion by molar mass, not a printed value. Where “and” joins values, the source holds several entries; their conditions need not be identical. Equal entries are not always repeated. Where two headings read alike, the source gives them in different places.

How the values were obtained:
[1] = Solubility according to the Chinese Pharmacopoeia, 2015 edition; assay type: physicochemical; conditions: for Solubility in Acetonitrile: solvent acetonitrile; for Solubility in Acetonitrile:water 45:55: solvent acetonitrile:water 45:55; for Solubility in Cloroform: solvent chloroform; for Solubility in Ethyl acetate: solvent ethyl acetate; for Solubility in Water: solvent water
Experimental: Solubility is a physical property of the drug. The reaction was performed according to the Chinese Pharmacopoeia, 2015 edition.

[2] = Nitrite scavenging activity, diazo coupling spectrophotometric method (in vitro anti-tumour experiment)
Description: Numerous methods for nitrite clearance have been reported, such as spectrophotometric, chromatographic-mass spectrometric, electrochemical, and fluorescence methods. Considering various factors, we decided to use diazo coupling spectrophotometry to perform this experiment. […] On the other hand, it may be that ARG-V also has the ability to bind nitrite such that the nitrite content decreased, achieving the purpose of clearing nitrite.
Our team has studied the […] scavenging activity of ARG and ARG-V using diazo coupling spectrophotometric method.

Beagle dogs = tested on: Beagle dogs; set-up: method as in earlier work; conditions: cited from earlier work
[3] = Stability of ARG QC samples in rat plasma; assay type: in vitro ADME; conditions: three concentrations; room temperature 12 hours, −20 °C for a month, three freeze-thaw cycles
Experimental: The ARG stock solution was diluted with plasma to make quality control (QC) samples, and the QC samples were prepared at three concentrations of low, medium and high (0.02, 0.1, and 2 μg/mL). The QC samples were kept at room temperature for 12 h, and freeze-thaw cycles were repeated 3 times. The QC samples were kept at −20 °C for 30 days.

[4] = Pharmacokinetics after oral (intragastric) administration to rats, plasma ARG by HPLC, 3P97 fit; assay type: in vivo, Wistar rats; conditions: for AUC / CL/F(s): intragastric, X ± SD, n = 6; for AUC value: oral
Experimental: Male Wistar rats (8 weeks, 230–250 g) were purchased from Liaoning Changsheng Biotechnology Co., Ltd. (Certificate No. SCXK-2015-0001) and acclimated to the laboratory environment for 1 week.
After the frozen plasma thawed, a 0.2 mL rat plasma sample was placed in an Eppendorf tube containing 5 µL of the IS working solution and 1 mL of acetonitrile with 0.1% formic acid and mixed evenly with a turbine mixer for 3 minutes. It was then separated by centrifugation (12000 rpm, 10 min, 4 °C). The supernatant was withdrawn and evaporated to dryness under N2. The dry residue was reconstituted by mixing it with 50 μL of acetonitrile for 1 minute and separated by centrifugation (16000 rpm, 5 min, 4 °C), and a 20 μL aliquot was injected into the HPLC system for analysis.
The rats received ARG and ARG-V by oral administration. Blood samples were obtained via the oculi chorioideae vein before oral administration and at 1, 3, 5, 10, 15, 30, 45, 60, 90, 120, 150, 180, 240, and 360 min after administration. The whole blood samples were separated by centrifugation (8000 rpm, 10 min), and the plasma was obtained and stored at −20 °C until analysis.
Analytes were separated on a Thermo BDS HYPERSIL C18 column (4.6 × 250 mm, 5 μm) at a flow rate of 1.0 mL/min. The column was maintained at 30 °C. The mobile phase consisted of acetonitrile and 0.1% formic acid water (45:55 v/v). Detection was done at a wavelength of 280 nm.
The values are presented as the mean ± standard deviation (SD). The concentration-time curve was drawn, and data were processed using the 3P97 software.

[5] = set-up: method as in PMID 27685612; conditions: patients with advanced pancreatic cancer refractory to gemcitabine; second peaks indicate enterohepatic circulation; cited from earlier work
[6] = tested on: H22 hepatocellular carcinoma; experiment: In vivo anti-tumour experiment in H22 tumour-bearing mice (tumour growth, body weight, immune organ indexes); conditions: 14 days
Description: SPF (specific pathogen free) grade, male ICR mice with body weights ranging from 19 to 21 g were obtained from the Laboratory Animal Quality Testing Center of Jilin Province. The ICR mice were divided into 7 groups as follows: the normal group, the model group, the cyclophosphamide (CTX) group, the ARG group, the high dose ARG-V group, the middle dose ARG-V group and the low dose ARG-V group. H22 hepatocarcinoma cells were purchased from the Institute of Biochemistry and Cell Biology, CAS.
(§1) To prepare the ascitic tumour-bearing model, 0.2 mL of the cell suspension (1 × 10^5 cells/mouse) was injected into the shoulder of the right limb subcutaneously in each mouse. Twenty-four hours after the tumour inoculation with H22 cells, the ICR mice were divided into 7 groups as follows: the normal group, the model group, the cyclophosphamide (CTX) group, the ARG group, the high dose ARG-V group, the middle dose ARG-V group, and the low dose ARG-V group. The positive control group received CTX at a dosage of 25 mg/kg by intraperitoneal injection. The model group and the normal group were treated with the same amount of normal saline by P.O. once a day. The mice were given an ARG suspension solution mixed with sodium carboxymethyl cellulose at a daily dose of 40 mg/kg, and ARG-V dissolved in saline at different dosages was administered orally. The mice in each group were treated continuously for 14 days. Before and after each drug administration, the size of the tumours were measured, and the weights of the mice were recorded. Twenty-four hours after the last administration, the mice were killed by cervical dislocation, and blood samples were collected from the eyes of the mice. The tumour, spleen, and thymus of the mice were taken out and weighed on an electronic balance.

H22 tumour-bearing mice = experiment: Serum ALT, AST, BUN and CRE in H22 tumour-bearing mice; conditions: for BUN / CRE: Fig. 2(b); for Serum ALT / Serum AST: Fig. 2(a)
Experimental: as §1
AST and ALT are clinical indexes of liver function, used in medicine to judge whether the liver is damaged. BUN and CRE are used to judge whether the kidney is damaged. They were analysed by a commercially available reagent kit according to the instructions.

[7] = tested on: serum cytokines TNF-α, IL-2, VEGF; experiment: Serum cytokines (TNF-α, IL-2, VEGF) by ELISA in H22 tumour-bearing mice; assay type: in vivo, ICR mice; conditions: for Expression level of IL-2: compared to the tumour model group; for Expression level of IL-2 / Serum TNF-α level: Fig. 2(c); for Serum VEGF: Fig. 2(d)
Experimental: as §1
The serum levels of the cytokines IL-2, IL-6, VEGF and TNF-α were analysed using a commercially available ELISA kit according to the manufacturer’s instruction.

[8] = concentration 0.125 mg/mL, in % (unit assumed)
[9] = concentration 0.25 mg/mL, in % (unit assumed)
[10] = concentration 0.5 mg/mL, in % (unit assumed)
[11] = concentration 1 mg/mL, in % (unit assumed)
[12] = concentration 2 mg/mL, in % (unit assumed)
[13] = concentration 4 mg/mL, in % (unit assumed)
[14] = first of three concentrations (low dosage)
[15] = second of three concentrations (middle dosage)
[16] = third of three concentrations (high dosage)
[17] = 40 mg/kg oral daily, mean ± SD, n = 8
[18] = 25 mg/kg intraperitoneal, mean ± SD, n = 8

SMILES | Solubility in Acetonitrile [1] | Solubility in Acetonitrile:water 45:55 [1] | Solubility in Cloroform [1] | Solubility in Ethyl acetate [1] | Solubility in Water [1] | IC50 (nitrite scavenging) [2] | Clearance rate on nitrite [2, 8] | Clearance rate on nitrite [2, 9] | Clearance rate on nitrite [2, 10] | Clearance rate on nitrite [2, 11] | Clearance rate on nitrite [2, 12] | Clearance rate on nitrite [2, 13] | AUC value [4, 14] | AUC value [4, 15] | AUC value [4, 16] | Inhibitory rate ([6]; 40 mg/kg oral daily) | Tumor weight [6, 17] | BUN (H22 tumour-bearing mice; compared to the CTX group) | Serum ALT (H22 tumour-bearing mice; compared to the model group) | Serum AST (H22 tumour-bearing mice; compared to the model group) | also measured
COc1cc(C[C@H]2C(=O)OC[C@@H]2Cc2ccc(OC)c(OC)c2)ccc1O [ARG, Arctigenin] | very soluble | very soluble | freely soluble | freely soluble | almost insoluble | 17.49 mg/mL (≈ 47 mM) | 17.60 ± 0.02 | 23.41 ± 0.02 | 27.72 ± 0.03 | 31.09 ± 0.02 | 34.46 ± 0.02 | 39.14 ± 0.07 | 228 ng·h/mL | 316 ng·h/mL | 424 ng·h/mL | 26.26% | 1.32 ± 0.34 g | no significant difference | decreased | decreased | Toxicity in Beagle dogs (Beagle dogs; 60 mg/kg group, subcutaneous injection, except the stimulus response at the administration location): no overt toxicity; Toxicity in Beagle dogs (Beagle dogs; repeated subcutaneous injection of large doses): can induce injury to the liver and biliary duct; Stability in rat plasma QC samples [3]: good results; AUC ([4]; high dosage): 25419.859 ± 5497.001 (ng/mL)*min; CL/F(s) ([4]; high dosage): 0.009 ± 0.003 mg/kg/min/(ng/mL); AUC ([4]; low dosage): 13687.547 ± 3050.502 (ng/mL)*min; CL/F(s) ([4]; low dosage): 0.004 ± 0.001 mg/kg/min/(ng/mL); AUC ([4]; middle dosage): 18971.963 ± 5515.267 (ng/mL)*min; CL/F(s) ([4]; middle dosage): 0.006 ± 0.003 mg/kg/min/(ng/mL); Form of ARG in patients [5]: exists as arctigenin glucuronide (AGG); CRE (H22 tumour-bearing mice; compared to the CTX group): no significant difference
COc1ccc(CC2COC(=O)C2Cc2ccc(OC(=O)C(N)C(C)C)c(OC)c2)cc1OC (stereo not drawn) [ARG-V] | slight soluble | very soluble | freely soluble | almost insoluble | freely soluble | 2.19 mg/mL (≈ 4.64 mM) | 20.22 ± 0.00 | 27.90 ± 0.05 | 35.21 ± 0.07 | 45.51 ± 0.01 | 64.04 ± 0.01 | 69.10 ± 0.04 | 253 ng·h/mL | 391 ng·h/mL | 574 ng·h/mL | 69.2% and 69.27% | 0.55 ± 0.15^**,aa g | significant difference | decreased | decreased | Increase of nitrite removal ability compared with ARG ([2]; concentration 4 mg/mL): more than 75%; Inhibitory rate ([6]; 20 mg/kg oral daily): 42.46%; Tumor weight ([6]; 20 mg/kg oral daily, mean ± SD, n = 8): 1.03 ± 0.19^**,##,a g; Inhibitory rate ([6]; 80 mg/kg oral daily): 63.13%; Tumor weight ([6]; 80 mg/kg oral daily, mean ± SD, n = 8): 0.66 ± 0.17^**,#,aa g; BUN (H22 tumour-bearing mice; compared to the model group): decreased significantly; CRE (H22 tumour-bearing mice; compared to the model group): decreased significantly; Expression level of IL-2 [7]: significantly higher; Serum VEGF ([7]; compared with the model group): decreased; Serum TNF-α level ([7]; three doses, compared with the CTX group): increased significantly
O=P1(N(CCCl)CCCl)NCCCO1 (stereo not drawn) [CTX, Cyclophosphamide] | – | – | – | – | – | – | – | – | – | – | – | – | – | – | – | – | – | – | obviously increased | obviously increased | Increase of body weight ([6]; 25 mg/kg intraperitoneal): 4.37 g; Inhibitory rate ([6]; 25 mg/kg intraperitoneal): 72.06%; Spleen index [6, 18]: 4.40 ± 0.40 mg/g; Thymus index [6, 18]: 1.24 ± 0.20 mg/g; Tumor weight [6, 18]: 0.50 ± 0.11 g; Expression level of IL-2 [7]: obviously decreased; Serum TNF-α level ([7]; compared with the model group): significantly decreased; Serum VEGF ([7]; compared with the model group): decreased significantly
O=C1O[C@H]([C@@H](O)CO)C(O)=C1O [VC] | – | – | – | – | – | 0.69 mg/mL (≈ 3.92 mM) | – | – | – | – | – | – | – | – | – | – | – | – | – | – | Clearance rate on nitrite ([2]; concentration 0.125 mg/mL): 7.30 ± 0.06; Clearance rate on nitrite ([2]; concentration 0.25 mg/mL): 17.23 ± 0.00; Clearance rate on nitrite ([2]; concentration 0.5 mg/mL): 25.84 ± 0.03; Clearance rate on nitrite ([2]; concentration 1 mg/mL): 54.49 ± 0.02; Clearance rate on nitrite ([2]; concentration 2 mg/mL): 96.32 ± 0.00; Clearance rate on nitrite ([2]; concentration 4 mg/mL): 97.75 ± 0.00
